For the first assay, the target named is T1, phospho p-38 alpha kinase (Homo sapiens, UniProt Q16539).
T1 construct: purchased Panvera
T1 sequence (Q16539 whole entry): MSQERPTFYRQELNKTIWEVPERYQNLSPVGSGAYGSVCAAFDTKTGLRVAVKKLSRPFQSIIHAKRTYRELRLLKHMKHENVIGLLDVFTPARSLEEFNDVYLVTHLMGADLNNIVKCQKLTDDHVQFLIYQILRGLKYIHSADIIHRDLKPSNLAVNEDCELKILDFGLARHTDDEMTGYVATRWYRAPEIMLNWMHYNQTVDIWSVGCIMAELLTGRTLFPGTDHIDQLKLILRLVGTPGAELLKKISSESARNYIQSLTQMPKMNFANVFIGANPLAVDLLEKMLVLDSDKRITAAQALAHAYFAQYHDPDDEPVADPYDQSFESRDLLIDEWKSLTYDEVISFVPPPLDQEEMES
In words: P-38 alpha kinase assay (spectrophotometric, pyruvate kinase/lactate dehydrogenase coupled). Format: biochemical. The note with it: Table 3; rates from […] to 2 h time frame.
The term IC50 denotes the midpoint of a concentration-inhibition curve. A lower IC50 goes with greater potency. As to `O=C(Nc1cccc(Br)c1)Nc1cc(-c2ccccc2)nn1-c1cccc(CO)c1` [Example 456, 1-(3-bromophenyl)-3-{1-[3-(hydroxymethyl)phenyl]-3-phenyl-1H-pyrazol-5-yl}urea], it took 40 nM to reach half-maximal inhibition (IC50).
In the case of `O=C(Nc1cccc(C(F)(F)F)c1)Nc1cc(-c2ccccc2)nn1-c1cccc(CO)c1` [Example 457, 1-{3-phenyl-1-[3-(hydroxymethyl)phenyl]-1H-pyrazol-5-yl}-3-(3-trifluoromethylphenyl)urea], the IC50 was determined as 1100 nM.
The compound `COc1cccc(NC(=O)Nc2cc(-c3ccccc3)nn2-c2cccc(CO)c2)c1` [Example 458, 1-{3-phenyl-1-[3-(hydroxymethyl)phenyl]-1H-pyrazol-5-yl}-3-(3-methoxyphenyl)urea] gave an IC50 of 1000 nM.
Consider `O=C(Nc1cccc(Cl)c1Cl)Nc1cc(-c2ccccc2)nn1-c1cccc(CO)c1` [Example 459, 1-{3-phenyl-1-[3-(hydroxymethyl)phenyl]-1H-pyrazol-5-yl}-3-(2,3-dichlorophenyl)urea], for which it took 20 nM to reach half-maximal inhibition (IC50).
Consider `CC(C)(C)c1cc(NC(=O)Nc2cccc3ccccc23)n(-c2ccc(CO)cc2)n1` [Example 461, 1-{3-t-butyl-1-[4-(hydroxymethyl)phenyl]-1H-pyrazol-5-yl}-3-(naphthalen-1-yl)urea], for which the midpoint of inhibition, the IC50, lay at 17 nM.
For `CC(O)c1ccc(-n2nc(C(C)(C)C)cc2NC(=O)Nc2cccc3ccccc23)cc1` (centres unmarked) [Example 463, 1-{3-t-butyl-1-[4-(1-hydroxyethyl)phenyl]-1H-pyrazol-5-yl}-3-(naphthalen-1-yl)urea], the IC50 was 56 nM.
In turn, `C#CC(O)c1ccc(-n2nc(C(C)(C)C)cc2NC(=O)Nc2cccc3ccccc23)cc1` (centres unmarked) [Example 464, 1-{3-t-butyl-1-[4-(1-hydroxyprop-2-ynyl)phenyl]-1H-pyrazol-5-yl}-3-(naphthalen-1-yl)urea] yielded an IC50 of 19 nM.
Compound `CC(C)(C)c1cc(NC(=O)Nc2cccc(Cl)c2Cl)n(-c2ccc(CO)cc2)n1` [Example 466, 1-{3-t-butyl-1-[4-(hydroxymethyl)phenyl]-1H-pyrazol-5-yl}-3-(2,3-dichloro-phenyl)urea] yielded an IC50 of 7 nM.
Compound `CC(C)(C)c1cc(NC(=O)Nc2cccc(Cl)c2Cl)n(-c2ccc(C(C)(C)O)cc2)n1` [Example 467, 1-{3-t-butyl-1-[4-(2-hydroxypropan-2-yl)phenyl]-1H-pyrazol-5-yl}-3-(2,3-dichlorophenyl)urea] displayed a half-maximal inhibitory concentration (IC50) of 119 nM.
Compound `CC(C)(C)c1cc(NC(=O)Nc2cccc(Cl)c2Cl)n(-c2ccc(C(=O)O)cc2)n1` [Example 468, 4-{3-t-butyl-5-[3-(2,3-dichlorophenyl)ureido]-1H-pyrazol-1-yl}benzoic acid] showed an IC50 of 8.6 nM.
The compound `CC(O)c1cccc(-n2nc(C(C)(C)C)cc2NC(=O)Nc2cccc3ccccc23)c1` (centres unmarked) [Example 472, 1-{3-t-butyl-1-[3-(1-hydroxyethyl)phenyl]-1H-pyrazol-5-yl}-3-(naphthalen-1yl)urea] displayed an IC50 of 50 nM.
Consider `C#CC(O)c1cccc(-n2nc(C(C)(C)C)cc2NC(=O)Nc2cccc3ccccc23)c1` (centres unmarked) [Example 473, 1-{3-t-butyl-1-[3-(1-hydroxyprop-2-ynyl)phenyl]-1H-pyrazol-5-yl}-3-(naphthalen-1-yl)urea], for which the IC50 turned out to be 4 nM.
On the same count and under the same terms, in the case of `CCOC(=O)c1cccc(-n2nc(C(C)(C)C)cc2NC(=O)Nc2cccc(Cl)c2Cl)c1` [Example 474, ethyl 3-{3-t-butyl-5-[3-(2,3-dichlorophenyl)ureido]-1H-pyrazol-1-yl}benzoate] it was 380 nM; in that of `CC(C)(C)c1cc(NC(=O)Nc2cccc(Cl)c2Cl)n(-c2cccc(CO)c2)n1` [Example 475, 1-[3-t-butyl-1-(3-hydroxymethyl-phenyl)-1H-pyrazol-5-yl]-3-(2,3-dichlorophenyl)-urea], 10 nM; in that of `CC(C)(C)c1cc(NC(=O)Nc2cccc(Cl)c2Cl)n(-c2cccc(C(C)(C)O)c2)n1` [Example 476, 1-{3-t-butyl-1-[3-(2-hydroxypropan-2-yl)phenyl]-1H-pyrazol-5-yl}-3-(2,3-dichlorophenyl)urea], 24 nM.
Same read-out and setting: the figure for `CC(C)(C)c1cc(NC(=O)Nc2cccc(Cl)c2Cl)n(-c2cccc(C(=O)O)c2)n1` [Example 477, 3-{3-t-butyl-5-[3-(2,3-dichlorophenyl)ureido]-1H-pyrazol-1-yl}benzoic acid] is 42 nM; for `CC(C)(C)c1cc(NC(=O)Nc2ccc(Cl)cc2)n(-c2cccc(CN3C(=O)NC(=O)C3=O)c2)n1` [Example 481, 1-{3-t-butyl-2-{3-[(2,4,5-trioxoimidazolidin-1-yl)methyl]phenyl}-1H-pyrazol-3-yl}-3-(4-chlorophenyl)urea] it is 230 nM; for `CC(C)(C)c1cc(NC(=O)Nc2cccc3ccccc23)n(-c2cccc(CN3C(=O)C(=O)NS3(=O)=O)c2)n1` [Example 482, 1-{5-t-butyl-2-[3-(1,1,3,4-tetraoxo-1λ^6-[1,2,5]thiadiazolidin-2-ylmethyl)phenyl]-2H-pyrazol-3-yl}-3-(naphthalen-1-yl)urea] it is 84 nM.
Regarding `CC(C)(C)c1cc(NC(=O)Nc2ccc(Cl)cc2)n(-c2cccc(CN3C(=O)C(=O)NS3(=O)=O)c2)n1` [Example 483, 1-{5-t-butyl-2-[3-(1,1,3,4-tetraoxo-1λ^6-[1,2,5]thiadiazolidin-2-ylmethyl)phenyl]-2H-pyrazol-3-yl}-3-(4-chlorophenyl)urea], the IC50 was determined as 270 nM.
As for `CC(C)(C)c1cc(NC(=O)Nc2cccc3ccccc23)n(-c2cccc(CNC(=O)N3CCOCC3)c2)n1` [Example 485, 1-(3-t-butyl-1-{3-[(morpholine-4-carboxamido)methyl]phenyl}-1H-pyrazol-5-yl)-3-(naphthalen-1-yl)urea], the IC50 turned out to be 50 nM.
Regarding `CC(C)(C)c1cc(NC(=O)Nc2cccc3ccccc23)n(-c2cccc(CNC(=O)N3CCCC3)c2)n1` [Example 486, 1-(3-t-butyl-1-{3-[(pyrrolidine-1-carboxamido)methyl]phenyl}-1H-pyrazol-5-yl)-3-(naphthalen-1-yl)urea], the IC50 is 57 nM.
Still for that read-out and setting: in the case of `CN(C)C(=O)NCc1cccc(-n2nc(C(C)(C)C)cc2NC(=O)Nc2cccc3ccccc23)c1` [Example 487, 1-{3-t-butyl-1-[3-(3,3-dimethylureidomethyl)phenyl]-1H-pyrazol-5-yl}-3-(naphthalen-1-yl)urea] it was 38 nM.
In the case of `CC(C)(C)c1cc(NC(=O)Nc2ccc(Cl)cc2)n(-c2cccc(CNC(=O)N3CCCCC3)c2)n1` [Example 488, 1-(3-t-butyl-1-{3-{(piperidine-1-carboxamido)methyl]phenyl}-1H-pyrazol-5-yl)-3-(4-chlorophenyl)urea], the IC50 was determined as 540 nM.
The same measure, in the same setting: in the case of `CC(C)(C)c1cc(NC(=O)Nc2ccc(Cl)cc2)n(-c2cccc(CNC(=O)N3CCOCC3)c2)n1` [Example 489, 1-(3-t-butyl-1-{3-[(morpholine-4-carboxamido)methyl]phenyl}-1H-pyrazol-5-yl)-3-(4-chlorophenyl)urea] it was 520 nM; in that of `CC(C)(C)c1cc(NC(=O)Nc2ccc(Cl)cc2)n(-c2cccc(CNC(=O)N3CCCC3)c2)n1` [Example 490, 1-(3-t-butyl-1-{3-[(pyrrolidine-1-carboxamido)methyl]phenyl}-1H-pyrazol-5-yl)-3-(4-chlorophenyl)urea], 340 nM.
Compound `CN(C)C(=O)NCc1cccc(-n2nc(C(C)(C)C)cc2NC(=O)Nc2ccc(Cl)cc2)c1` [Example 491, 1-{3-t-butyl-1-[3-(3,3-dimethylureidomethyl)phenyl]-1H-pyrazol-5-yl}-3-(4-chlorophenyl)urea] yielded an IC50 of 340 nM.
In the case of `CN1CCN(C(=O)NCc2cccc(-n3nc(C(C)(C)C)cc3NC(=O)Nc3cccc4ccccc34)c2)CC1` [Example 492, 1-(3-t-butyl-1-{3-[(1-methylpiperazine-4-carboxamido)methyl]phenyl)-1H-pyrazol-5-yl)-3-(naphthalen-1-yl)urea], the IC50 worked out at 40 nM.
`CC(C)(C)c1cc(NC(=O)Nc2ccc(Cl)cc2)n(-c2cccc(CN3C(=O)C(=O)N(c4ccccc4)C3=O)c2)n1` [Example 494, 1-(3-t-butyl-1-(3-[(2,4,5-trioxo-3-phenylimidazolidin-1-yl)methyl]phenyl}-1H-pyrazol-5-yl)-3-(4-chlorophenyl)urea]: the IC50 was 670 nM.
For the compound `CC(C)(C)c1cc(NC(=O)Nc2ccc(Cl)cc2)n(-c2cccc(Cn3c(=O)[nH]n(-c4ccccc4)c3=O)c2)n1` [Example 495, 1-(3-t-butyl-1-{3-[(3,5-dioxo-1-phenyl-1,2,4-triazolidin-4-yl)methyl]phenyl}-1H-pyrazol-5-yl)-3-(4-chlorophenyl)urea], half-maximal inhibition (IC50) was put at 250 nM.
In turn, `CC(C)(C)C1=NC(c2ccc(CC(=O)O)cc2)C(NC(=O)Nc2ccc(Cl)cc2)=C1` (centres unmarked) [Example 506, 2-(4-{5-t-butyl-3-[3-(4-chlorophenyl)ureido]-2H-pyrrol-2-yl}-phenyl)acetic acid] gave an IC50 of 42 nM.

Staying with this assay, now noted: read-out: % Inhibition @ concentration, Table 3; at 0.1 uM.
As for `CC(C)(C)c1cc(NC(=O)Nc2cccc(Cl)c2Cl)n(-c2cccc(Cn3c(=O)[nH]n(-c4ccccc4)c3=O)c2)n1` [Example 499, 1-(3-t-butyl-1-{3-[(3,5-dioxo-1-phenyl-1,2,4-triazolidin-4-yl)methyl]phenyl}-1H-pyrazol-5-yl)-3-(2,3-dichlorophenyl)urea], the inhibition at 0.1 µM was found to be 78%.

Still in this assay, the particulars now being: read-out: % Inhibition @ concentration, Table 3; at 1 uM.
As to `CN1CCN(C(=O)NCc2cccc(-n3nc(C(C)(C)C)cc3NC(=O)Nc3ccc(Cl)cc3)c2)CC1` [Example 493, 1-(3-t-butyl-1-{3-[(1-methylpiperazine-4-carboxamido)methyl]phenyl}-1H-pyrazol-5-yl)-3-(4-chlorophenyl)urea], the inhibition at 1 µM amounted to 36%.
Regarding `CC(C)(C)c1cc(NC(=O)Nc2ccc(F)cc2)n(-c2cccc(Cn3c(=O)[nH]n(-c4ccccc4)c3=O)c2)n1` [Example 498, 1-(3-t-butyl-1-{3-[(3,5-dioxo-1-phenyl-1,2,4-triazolidin-4-yl)methyl]phenyl}-1H-pyrazol-5-yl)-3-(4-fluorophenyl)urea], the inhibition at 1 µM stood at 25%.
On the same count and under the same terms, in the case of `CC(C)(C)c1cc(NC(=O)Nc2cccc(Cl)c2Cl)n(-c2cccc(Cn3c(=O)[nH]n(-c4ccccc4)c3=O)c2)n1` [Example 499, 1-(3-t-butyl-1-{3-[(3,5-dioxo-1-phenyl-1,2,4-triazolidin-4-yl)methyl]phenyl}-1H-pyrazol-5-yl)-3-(2,3-dichlorophenyl)urea] it was 95%.

The assay is the same for the next values; noted with them: read-out: % Inhibition @ concentration, Table 3; at 10 uM.
`CN1CCN(C(=O)NCc2cccc(-n3nc(C(C)(C)C)cc3NC(=O)Nc3ccc(Cl)cc3)c2)CC1` [Example 493, 1-(3-t-butyl-1-{3-[(1-methylpiperazine-4-carboxamido)methyl]phenyl}-1H-pyrazol-5-yl)-3-(4-chlorophenyl)urea]: the inhibition at 10 µM worked out at 73%.
